Here are results for eight compounds from patent US4078146A, “Phenoxy propanolamines” (priority 1972, dated 1978).

The ED50 is the dose at which the effect has come halfway, by size or by number of responders.

For assay [1], the target named is T1, β-receptors of the heart (Felis catus, UniProt Q9TST6).
T1 construct: Intravenously injected isoprenaline increased the heart rate and reduced the perfusion pressure; from tissue; host or cells: heart of the anaesthetized, reserpinized, vagotomized cat (in vivo)
Briefly: Intrinsic activity and β-blockade of heart rate response to isoprenaline in the reserpinized cat. It is filed as in vivo. Particulars: for Emax: read-out: Intrinsic activity % of isoprenaline heart rate response; for ED50: read-out: β-blockade Heart rate ED50. As for the experimental part:
Alprenolol was used as a reference substance.
(§1) Cats weighing between […] were anaesthetized with 30 mg/kg pentobarbital sodium i.p. The cats had been pretreated with reserpine, 5 mg/kg i.m. about 18 hours before the experiment. Bilateral vagotomy was performed before the start of the experiment.
The heart rate was recorded on an Offner cardiotachometer triggered by the EKG-complex. Mean intraarterial blood pressure was recorded from a carotid artery. The peripheral resistance was measured in one of the legs of the cat in the following way: The femoral artery was opened in the inguinal region and the leg was perfused by blood delivered through a sigma motor pump at constant rate. The flow resistance (the pressure) as recorded via a strain gauge transducer connected to the catheter distally to the pump. The paw was excluded from the circulation by a tight ligature around the ankle. […] An isoprenaline dose giving 70-80% of the maximal chronotropic response was determined. […] Ten minutes before each isoprenaline injection, the tested substances were administered intravenously for two minutes, starting with a dose of 0.01 mg/kg and increasing each subsequent dose fourfold. The intrinsic effects of the test substances were determined. The dose producing 50% blockade of the isoprenaline responses were evaluated from the plotted log dose-per cent blockade diagrams.

Assay [2] deals with T2, peripheral vascular β-receptors (Felis catus, UniProt Q9TST5).
T2 construct: from tissue; host or cells: vascular bed of the blood-perfused leg (paw excluded) of the anaesthetized, reserpinized cat (in vivo)
Kind of assay: Peripheral vascular β-blockade (peripheral vascular resistance, vasodilator response to isoprenaline) in the reserpinized cat. It is filed as in vivo. As to conditions: read-out: β-blockade Peripheral vascular resistance ED50. As for the experimental part: The compounds prepared according to examples 1-18 were evaluated for intrinsic activity and blocking effect on heart rate and for peripheral vasodilator response to isoprenaline in the cat. Alprenolol was used as a reference substance.
as §1
The heart rate was recorded on an Offner cardiotachometer triggered by the EKG-complex. Mean intraarterial blood pressure was recorded from a carotid artery. The peripheral resistance was measured in one of the legs of the cat in the following way: The femoral artery was opened in the inguinal region and the leg was perfused by blood delivered through a sigma motor pump at constant rate. The flow resistance (the pressure) as recorded via a strain gauge transducer connected to the catheter distally to the pump. The paw was excluded from the circulation by a tight ligature around the ankle. Intravenously injected isoprenaline increased the heart rate and reduced the perfusion pressure. An isoprenaline dose giving 70-80% of the maximal chronotropic response was determined. This dose (usually 0.1 μg/kg) was then repeated with 20 minute intervals. Ten minutes before each isoprenaline injection, the tested substances were administered intravenously for two minutes, starting with a dose of 0.01 mg/kg and increasing each subsequent dose fourfold. The intrinsic effects of the test substances were determined. The dose producing 50% blockade of the isoprenaline responses were evaluated from the plotted log dose-per cent blockade diagrams.

[3] abbreviates: reserpinized cat, intravenous, 50% blockade of isoprenaline response (usually 0.1 μg/kg).

Where two headings read alike, the source gives them in different places.

T1 sequence (Q9TST6 whole entry, the tested form may be a part): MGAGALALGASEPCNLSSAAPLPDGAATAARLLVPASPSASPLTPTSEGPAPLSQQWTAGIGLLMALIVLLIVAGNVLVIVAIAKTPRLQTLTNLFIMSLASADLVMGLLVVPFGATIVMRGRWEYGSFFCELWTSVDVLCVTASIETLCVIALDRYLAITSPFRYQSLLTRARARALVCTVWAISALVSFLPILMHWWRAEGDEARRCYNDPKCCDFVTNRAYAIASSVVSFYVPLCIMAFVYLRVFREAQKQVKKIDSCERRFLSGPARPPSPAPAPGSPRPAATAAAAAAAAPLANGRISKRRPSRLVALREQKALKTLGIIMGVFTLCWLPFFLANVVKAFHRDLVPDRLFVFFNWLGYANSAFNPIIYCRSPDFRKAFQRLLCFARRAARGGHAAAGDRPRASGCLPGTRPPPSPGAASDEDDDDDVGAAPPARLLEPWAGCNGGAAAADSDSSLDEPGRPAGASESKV
T2 sequence (Q9TST5 whole entry, the tested form may be a part): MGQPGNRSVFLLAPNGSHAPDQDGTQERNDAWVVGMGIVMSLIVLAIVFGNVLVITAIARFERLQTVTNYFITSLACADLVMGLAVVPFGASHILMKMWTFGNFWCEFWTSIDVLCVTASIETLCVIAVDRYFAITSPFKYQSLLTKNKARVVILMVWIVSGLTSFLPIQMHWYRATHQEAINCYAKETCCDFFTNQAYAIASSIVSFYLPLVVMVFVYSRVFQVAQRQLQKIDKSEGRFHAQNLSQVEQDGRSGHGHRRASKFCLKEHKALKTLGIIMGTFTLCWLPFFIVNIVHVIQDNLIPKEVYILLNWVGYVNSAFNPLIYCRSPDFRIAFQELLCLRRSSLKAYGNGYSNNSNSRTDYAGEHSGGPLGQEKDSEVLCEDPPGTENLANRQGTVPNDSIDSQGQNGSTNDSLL

As to `C=CCc1ccccc1OCC(O)CNC(C)C` (stereo not shown) [alprenolol, Alprenolol, reference compound], in assay [1] (reserpinized cat, intravenous), the Emax was determined as 20%.
As for `CNC(=O)OCCc1ccc(OCC(O)CNC(C)C)cc1` (stereo not shown) [CH3 NHCOOC2 H4, H, 1-Isopropylamino-3-[4-(2-methylcarbamoyloxyethyl)-phenoxy]-propanol-2], the median effective dose (ED50) in assay [1] (setting [3]) was 0.4 mg/kg; in assay [2] (setting [3]) it was 2.4 mg/kg. Further, in assay [1] (reserpinized cat, intravenous), the Emax turned out to be 0%.
The matching figures for `CNC(=O)OCCc1ccc(OCC(O)CNC(C)C)c(Cl)c1` (stereo not shown) [CH3 NHCOOC2 H4, Cl, 1-Isopropylamino-3-[2-chloro-4-(2-methylcarbamoyloxyethyl)-phenoxy]-propanol-2]: 0.3 mg/kg, 1.8 mg/kg and 0%.
The matching figures for `CC(C)NCC(O)COc1ccc(CCNC(N)=O)cc1` (stereo not shown) [H2 NCONHC2 H4, H]: 0.4 mg/kg, 14 mg/kg and 0%.
The matching figures for `CNC(=O)OCCOc1ccc(OCC(O)CNC(C)C)cc1` (stereo not shown) [CH3 NHCOOC2 H4 O, H, 1-isopropylamino-3-[4-(2-methylcarbamoyloxyethoxy)-phenoxy]-propanol-2]: 0.5 mg/kg, over 8.5 mg/kg and 25%.
Take `CC(C)NCC(O)COc1ccc(OCCOC(N)=O)cc1` (stereo not shown) [H2 NCOOC2 H5 O, H, 1-Isopropylamino-3-[4-(2-carbamoyloxyethoxy)-phenoxy]-propanol-2]: the 50% effective dose (ED50) in assay [1] (cat, iv) turned out to be 0.4 mg/kg; in assay [2] (cat, iv) it was 8 mg/kg. Further, the Emax in assay [1] (iv) came to 40%.
Regarding `CC(C)NCC(O)COc1ccc(CCNC(N)=O)cc1Cl` (stereo not shown) [H2 NCONHC2 H4, Cl, 1-Isopropylamino-3-[2-chloro-4-(2-carbamoylaminoethyl)phenoxy]-propanol-2], the median effective dose (ED50) was 0.4 mg/kg in assay [1] (setting [3]) and 2.6 mg/kg in assay [2] (setting [3]). In assay [1] (reserpinized cat, intravenous), the Emax came out at 0%.
Regarding `CC(C)NCC(O)COc1ccc(OCCOC(=O)N(C)C)cc1Cl` (stereo not shown) [(CH3)2 NCOOC2 H4 O, Cl, 1-Isopropylamino-3-[2-chloro-4-(2-dimethylcarbamoyloxyethoxy)-phenoxy]-propanol-2], the 50% effective dose (ED50) is 0.1 mg/kg in assay [1] (setting [3]) and 1.7 mg/kg in assay [2] (setting [3]). The Emax in assay [1] (reserpinized cat, intravenous) came to 5%.
